Measured values as given in patent publication EP3634580B1, “COMPOSITIONS COMPRISING LACTULOSE FOR MAINTAINING OR IMPROVING GUT HEALTH IN HUMANS” (Fresenius Kabi Austria GmbH, priority 2017, dated 2018).

What was measured:
[1] = test system: Lactobacillus; experiment: TIM-2 microbiota composition by V4 16S rDNA amplicon sequencing; assay type: cell-based, human; details: for Average number of the bacterial genus Lactobacillus: after 120 h of exposure in TIM-2, control 82
Description: (§1) Crystalline lactulose was administered daily for 5 days to the TNO Intestinal Model (TIM-2), an in vitro model of the proximal colon. NaOH consumption, short-chain fatty acids (SCFA) production, ammonia production as well as relative abundance of microbiota were analyzed.
(§2) The substance administered in this study was lactulose crystals (S.C.M. Società Chimica Mugello S.r.l., Vicchio, Italy). Experiments without the addition of lactulose served as negative control.
(§3) The TNO Intestinal Model (TIM-2) is a dynamic in vitro model of the proximal colon. The TIM-2 system was inoculated with a highly metabolically active colon microbiota of human origin. In the system the following standardized conditions were simulated: body temperature; pH in the lumen of the proximal colon (pH 5.8); delivery of a substrate from the 'ileum' (SIEM; Standardized Ileum Efflux Medium); mixing and transport of the intestinal contents; anaerobiosis; absorption of water and absorption of fermentation products, metabolites and other low molecular weight compounds (via a semipermeable membrane inside the colon model).
(§4) SIEM simulates material passing the ileocecal valve in humans. It contained the major non-digestible carbohydrates (pectin, xylan, arabinogalactan, amylopectin, starch) found in a normal western diet as well as protein (bactopepton, casein), ox-bile, Tween 80 as well as vitamins and minerals. SIEM was added to the system at a speed of 2.5 mL/h and the speed of the dialysis liquid was 1.5 mL/min. During the experiment, the intestinal contents were mixed continuously by the peristaltic movements of the TIM-2 system. In order to simulate the transit of the chime from proximal to distal colon, 25 mL of the lumen was removed every 24 h and discarded.
(§5) Before performing each experiment, the system was inoculated with a standardized microbiota of human origin. This standardized microbiota was prepared using fecal donations from a group of 4 healthy volunteers (3 females, 1 male, age 38.8 ± 3.9 years; BMI (body mass index) 24.2 ± 1.5 kg/m^2). Individuals provided signed informed consent before participation, were non-smokers and had not used antibiotics, prebiotics, probiotics or laxatives within 1 month before the stool donation.
(§6) At the start of the adaptation period the microbiota was allowed to adapt to the model conditions and SIEM for 16 h. After the adaptation period the 120 h test period started in which lactulose was added to TIM-2 once daily.
(§7) Lactulose was added to the system at daily doses of 2 g, 3 g, 4 g, and 5 g lactulose. Each dose as well as the control experiment was studied in duplicate (n = 2). The test period of the TIM-2 experiments lasted 120 h (5 consecutive days).
(§8) At the beginning and end of the experiment (t = 0 h and t = 120 h) luminal samples were used to investigate the composition of the microbiota. The samples were snap frozen in liquid nitrogen and stored at ≤ -72 °C until analysis.
(§9) The bacterial population in the TIM-2 samples was analyzed using Next Generation sequencing. Total DNA from the collected TIM-2 lumen samples at the start (t = 0 h) and at the end (t = 120 h) of the experiments was isolated. To determine the recovery of bacterial DNA from the samples, a quantitative polymerase chain reaction (qPCR) using primers specific for the bacterial 16S rRNA gene was used. Changes in the microbiota composition were analyzed by using mass V4 16S rDNA amplicon sequencing. Processing of the sequencing data was done using the Mothur pipeline.

[2] = test system: Bifidobacterium; experiment: as above; assay type: cell-based, human; details: for Average number of the bacterial genus Bifidobacterium: after 120 h of exposure in TIM-2, control 28,345
Description: as §1, §2, §3, §4, §5, §6, §7, §8, §9

[3] = after 120 h in TIM-2, versus control

## OC[C@H]1O[C@@H](O[C@@H]2[C@@H](CO)OC(O)(CO)[C@H]2O)[C@H](O)[C@@H](O)[C@H]1O (mixture of isomers) [Lactulose, lactulose]
[1]; [3]
  abundance of Lactobacillus (in words): increased the abundance
[1]; lactulose 2 g daily
  Average number of the bacterial genus Lactobacillus: 1,623
[1]; lactulose 3 g daily
  Average number of the bacterial genus Lactobacillus: 1,504
[1]; lactulose 4 g daily
  Average number of the bacterial genus Lactobacillus: 12,047
[1]; lactulose 5 g daily
  Average number of the bacterial genus Lactobacillus: 912
[2]; [3]
  abundance of Bifidobacterium (in words): increased the abundance
[2]; lactulose 2 g daily
  Average number of the bacterial genus Bifidobacterium: 24,781
[2]; lactulose 3 g daily
  Average number of the bacterial genus Bifidobacterium: 17,424
[2]; lactulose 4 g daily
  Average number of the bacterial genus Bifidobacterium: 135,876
[2]; lactulose 5 g daily
  Average number of the bacterial genus Bifidobacterium: 116,792
